Assays:
[1] = system: NMDA-induced neurotoxicity in CA1 region of organotypic hippocampal slice cultures; assay: NMDA-induced neurotoxicity in organotypic hippocampal slice cultures; assay type: cell-based, Wistar rat; conditions: 10 μM NMDA 3 hours, NMDA alone 35.1±[…]
Protocol: (§1) Organotypic hippocampal slice cultures were prepared using the basic method of Pringle et al, Brain Research, 755:36-46 (1997) modified as follows. Wistar rat pups (8-11 days old) were decapitated and the hippocampus rapidly dissected into ice-cold Gey's balanced salt solution supplemented with 4.5 mg/ml glucose. Transverse sections (400 μm) were cut on a McIlwain tissue chopper and placed back into ice-cold Gey's balanced salt solution. Slices were separated and plated onto Millicell CM culture inserts (4 per well) and maintained at 37° C./5% CO2 for 14 days. […] Medium was changed every 3-4 days.
(§2) PI fluorescence was detected using a Leica DMIL inverted microscope fitted with a rhodamine filter set. Any cultures in which PI fluorescence was detected at this stage were excluded from further study. […] Neuronal damage was assessed by PI fluorescence imaging 24 hours after the initiation of the neurotoxic insult. Neurotoxicity protocols are outlined below.
At the end of this period, cultures were returned to fresh SFM for 21 hours prior to determination of neuronal death by PI imaging.
(§3) Neuronal damage was assessed using ImageJ software running on a PC. […] Light transmission images were captured prior to the addition of drugs, and PI fluorescence images recorded at the end of the 24-hour recovery period. The area of the CA1 region was determined from the transmission image. […]

[2] = system: OGD-induced neurotoxicity in CA1 region of organotypic hippocampal slice cultures; assay: Oxygen-glucose deprivation (OGD) in organotypic hippocampal slice cultures (PI fluorescence in CA1); assay type: cell-based, Wistar rat
Protocol: as §1, §2
(2) Oxygen-Glucose Deprivation (OGD): Experimental ischaemia was performed by exposing cultures to oxygen-glucose deprivation (OGD) as described previously. Pringle et al, Brain Research, 755:36-46 (1997); Pringle et al, Stroke, 27:2124-2130 (1996); Morrison et al, Br. J. Pharmacol., 137:1255-1268 (2002). OGD was induced by transferring cultures to glucose-free SFM (+PI) which had been saturated with 95% N2/5% CO2. Culture plates (without lids) were then sealed into an airtight chamber in which the atmosphere was saturated with 95% N2/5% CO2 by continuously blowing through gas at 10 L/min for ten minutes before being sealed and placed in the incubator for 50 mins (total time of OGD was therefore 60 mins). At the end of the period of OGD cultures were returned to normoxic SFM containing PI and placed back in the incubator for 23 hours.
(§4) Neuronal damage was assessed using ImageJ software running on a PC. Images were captured using a monochrome CCD camera and saved for otlline analysis. Light transmission images were captured prior to the addition of drugs, and PI fluorescence images recorded at the end of the 24-hour recovery period. The area of the CA1 region was determined from the transmission image. The area of PI fluorescence in the CA1 was measured using the threshold function on ImageJ, and neuronal damage expressed as the percentage of the CA1 in which PI fluorescence was detected above background. Morrison et al, Br. J. Pharmacol., 137:1255-1268 (2002).

[3] = system: duroquinone-induced injury in CA1 region of organotypic hippocampal slice cultures; assay: Free radical-mediated toxicity (duroquinone) in organotypic hippocampal slice cultures; assay type: cell-based, Wistar rat; conditions: 100 μM duroquinone 3 hours, duroquinone alone 51.0±3.4%
Protocol: as §1
as §2, with “below. […]” for “below.”
as §3

[4] = system: hypoxia-induced neurodegeneration in CA1 region of organotypic hippocampal slice cultures; assay: Hypoxia-induced neurodegeneration in organotypic hippocampal slice cultures; assay type: cell-based, Wistar rat
Protocol: as §1, §2
(3) Hypoxia: Hypoxia was performed by exposing cultures to oxygen-deprivation as described previously. Pringle et al, Brain Research, 755:36-46 (1997); Pringle et al, Stroke, 27:2124-2130 (1996). Hypoxia was induced by transferring cultures to SFM (+PI) which had been saturated with 95% N2/5% CO2. Culture plates (without lids) were then sealed into an airtight chamber in which the atmosphere was saturated with 95% N2/5% CO2 by continuously blowing through gas at 10 L/min for ten minutes before being sealed and placed in the incubator for 170 mins (total time of hypoxia was therefore 180 mins). At the end of the period of hypoxia, cultures were returned to normoxic SFM (+PI) and placed back in the incubator for 21 hours. The freeradical scavenger MnTBAP (100 μM) was used as a positive neuroprotective control.
as §4

[5] = system: dopamine turnover in mice striatum; assay: Dopamine, DOPAC and HVA content / dopamine turnover in mice striatum (HPLC-ECD); assay type: in vivo, C57BL/6 mice; conditions: oral; for dopamine turnover: monotherapy vs combination, mice striatum (FIG. 3)
Protocol: C57BL/6 mice (SLC, Shizuoka, Japan) were used for the experiment. […] The two drugs were orally administered by gavage 1 hour before sampling. At the time the mice were sacrificed, both striata were rapidly dissected and were frozen by liquid nitrogen. The samples were subsequently sonicated in 0.5 ml of chilled 0.5 M perchloric acid containing 0.1 M EDTA, and centrifuged at 13000 rpm for 15 min at 4° C. Then monoamine levels were measured by HPLC with electrochemical detection. Supernatant aliquots of 20 μl were separated over an Eicompak SC5-ODS column (3×150 mm; Eicom, Japan) with mobile phase of 17% methanol, 83% 0.1M acetate/citrate buffer (pH 3.5) containing 190 mg/ml sodium 1-octanesulfonate and 50 mg/ml EDTA, and a flow rate of 0.65 ml/min. Peaks of dopamine, DOPAC, HVA, 5-HT, and 5-HIAA were quantified by area integration with PowerChrom (eDAQ, Australia), and concentrations were expressed as nanograms per milligram of striatal tissue.

[6] = system: NMDA-induced neural toxicity in cortical neurons; assay: NMDA-induced neural toxicity in cortical neurons (LDH release); assay type: cell-based, rat (Wistar, fetal); conditions: 200 μM NMDA 24 h
Protocol: The cortical tissues were dissociated to single cells by gentle trituration. […] The cell suspension was centrifuged at 310×g for 3 min and the resulting pellets were resuspended in the medium described above.

[7] = system: AMPA-mediated neurodegeneration in CA1 region of organotypic hippocampal slice cultures; assay: AMPA toxicity in organotypic hippocampal slice cultures (PI fluorescence in CA1); assay type: cell-based, Wistar rat
Protocol: as §1, §2
(1) AMPA: Cultures were transferred to fresh SFM (+PI) containing 30 μM S-AMPA for 3 hours under normal culture conditions. At the end of this period, cultures were returned to fresh SFM for 21 hours prior to determination of neuronal death by PI imaging. GYK152466 (30 μM) was used as a positive, neuroprotective control.
as §4

[8] = C57BL/6, mouse, in vivo, po, 1 h
[9] = 1 hour before sampling (FIG. 2)

C[C@]12N[C@H](Cc3ccccc31)c1ccccc12 [MK-801, reference compound]
damage in CA1 (PI fluorescence) ([1]; 10 μM): 0.0±0.0%

O=C(O)c1ccc(/C2=C3\C=CC(=N3)/C(c3ccc(C(=O)O)cc3)=c3/cc/c4[n]3[Mn]([Cl])[n]3c2ccc3/C(c2ccc(C(=O)O)cc2)=C2/C=CC(=N2)\C=4c2ccc(C(=O)O)cc2)cc1 [MnTBAP, reference compound]
damage in CA1 (PI fluorescence) ([2]; 100 μM, 60 minutes OGD, initial set, OGD alone 50.6±5.2%): 0.1±0.0%
damage in CA1 (PI fluorescence) ([2]; 100 μM, OGD second series, OGD alone 44.8±[…]): 0.6±0.2%
damage in CA1 (PI fluorescence) ([3]; 100 μM): 0.1±0.0%
damage in CA1 (PI fluorescence) ([4]; 100 μM, 3 hours hypoxia, first set, hypoxia alone 45.1±3.5%): 0.2±0.1%
damage in CA1 (PI fluorescence) ([4]; 100 μM, hypoxia, repeated experiment, hypoxia alone 36.9+[…]): 0.8±0.4%
damage in CA1 (PI fluorescence) ([4]; 100 μM, hypoxia, second set, hypoxia alone 36.4±[…]): 0.0±0.0%

N#Cc1ccccc1-c1cc(-c2ccccn2)cn(-c2ccccc2)c1=O [2-(2-oxo-1-phenyl-5-pyridin-2-yl-1,2-dihydropyridin-3-yl)benzonitrile]
content of HVA in striatum ([5]; 1 mg/kg, 1 hour before sampling (FIG. 1)): elevated
dopamine turnover [5]: modulated dopamine turnover but neither reached significance
concentration from which the effect reached a plateau [6]: ≥ 0.3 mM
neuronal survival (LDH release) ([6]; drugs 24 hours before and during exposure (FIG. 5)): showed effects
damage in CA1 (PI fluorescence) ([7]; 0.1 μM, 30 μM AMPA 3 hours, AMPA alone 65.1±1.7%): 63.9±2.6%
damage in CA1 (PI fluorescence) ([7]; 0.3 μM, 30 μM AMPA 3 hours, AMPA alone 65.1±1.7%): 50.4±2.5%
area of PI fluorescence, % of CA1 ([7]; 0.5 μM, 30 μM AMPA, AMPA alone 62.4±[…]): 33.6±4.0%
damage in CA1 (PI fluorescence) ([7]; 3 μM, 30 μM AMPA 3 hours, AMPA alone 65.1±1.7%): 0.1±0.1%
EC50 ([7]; Rattus norvegicus, 3 h, read-out: EC50 in this model of AMPA toxicity): 500 nM
damage in CA1 (PI fluorescence) ([2]; 0.1 μM, 60 minutes OGD, initial set, OGD alone 50.6±5.2%): 64.4±3.6%
damage in CA1 (PI fluorescence) ([2]; 0.5 μM, OGD second series, OGD alone 44.8±[…]): 55.3±3.1%
effect on OGD-induced PI fluorescence ([2]; any other concentration assessed (up to 3 μM), 60 minutes OGD): no significant effect
EC50 in OGD model ([2]; six-point concentration-response curve, 60 minutes OGD): could not be established
damage in CA1 (PI fluorescence) ([3]; 0.5 μM): 69.1±4.0%
damage in CA1 (PI fluorescence) ([1]; 0.5 μM): 29.1±2.9%
damage in CA1 (PI fluorescence) ([4]; 0.1 μM, 3 hours hypoxia, first set, hypoxia alone 45.1±3.5%): 24.8±6.3%
damage in CA1 (PI fluorescence) ([4]; 0.1 μM, hypoxia, second set, hypoxia alone 36.4±[…]): 36.7±4.2%
damage in CA1 (PI fluorescence) ([4]; 0.5 μM, hypoxia, repeated experiment, hypoxia alone 36.9+[…]): 27.1±3.5%
damage in CA1 (PI fluorescence) ([4]; 5 μM, 3 hours hypoxia, first set, hypoxia alone 45.1±3.5%): 3.9±1.8%

CC1=NN=C(c2ccc(N)cc2)c2cc3c(cc2C1)OCO3 [GYK152466, reference compound]
damage in CA1 (PI fluorescence) ([7]; 30 μM test substance, 30 μM AMPA 3 hours, AMPA alone 65.1±1.7%): 14.3±2.3%
damage in CA1 (PI fluorescence) ([7]; 30 μM, pre-incubation time experiments, AMPA alone 46.5±5.0%): 21.7±2.7%
damage in CA1 (PI fluorescence) ([2]; 30 μM, 60 minutes OGD, initial set, OGD alone 50.6±5.2%): 36.9±3.6%

COc1cc2c(cc1OC)C(=O)C(CC1CCN(Cc3ccccc3)CC1)C2 (stereo not shown) [donepezil, 1-benzyl-4-((5,6-dimethoxy-1-indanon)-2-yl)methylpiperidine]
dopamine turnover [5]: modulated dopamine turnover but neither reached significance
DPAC/DA [5, 9]: increased significantly
HVA/DA [5, 9]: increased significantly
content of dopamine in striatum [5, 9]: reduced the content of dopamine significantly
dose at which peripheral side effect was shown [8]: ≥ 7.5 mg/kg

From patent publication US20060270709A1 (priority 2005, published 2006)
